≈ marks a conversion by molar mass, not a printed value.
Key:
HSV-1 = experiment: HSV antiviral (ELISA) assay in Vero cells; type: cell-based, herpes simplex virus type 1; conditions: Human alphaherpesvirus 1; HSV-1 in Vero cells; read-out: IC50 (ug/ml) HSV
Protocol: HSV antiviral (ELISA) assay
Vero cells (ATCC #CCL-81) are plated on 96-well tissue culture plates at 3.5x10^4 cells per 100µl tissue culture DMEM (Dulbecco's modified Eagle media) supplemented with 2% fetal bovine serum (FBS) in each well. After overnight incubation @ 37°C (in 5% CO2) and 30 minutes prior to infection with HSV-1 (multiplicity of infection equal to 0.006), cells are either untreated, or treated with test compound (multiple concentrations) or reference standard drug control. After approximately 24 hours post-infection incubation @ 37°C (in 5% CO2), cells are fixed for ELISA assay. The primary antibody is murine anti-HSV glycoprotein D monoclonal primary antibody and the secondary antibody is goat anti-mouse IgG linked to β-galactosidase. Thus the extent of viral replication is determined by assessing β-galactosidase activity by quantifying the generation of the 4-methyl umbelliferone fluorescent cleavage product after addition of the methyl umbelliferyl-β-D-galactoside (Sigma #M1633) substrate on a microfluorimeter (365nm for excitation and 450nm for emission). Antiviral activity (IC50) of the test compound is determined by comparing the flourescence obtained in absence of compound to that obtained in the presence of compound.

VZV strain Ellen = experiment: VZV antiviral (ELISA) assay in human foreskin fibroblast cells; type: cell-based, varicella-zoster virus; conditions: for inhibition at 10 µg/mL: Human alphaherpesvirus 3, Fibroblast, read-out: % inhibition 10 ug/ml VZV; for IC50: Human alphaherpesvirus 3, VZV strain Ellen in HFF cells, read-out: IC50 (ug/ml) VZV
Protocol: VZV antiviral (ELISA) assay
For the generation of stock VZV to be used in the assay, VZV strain Ellen (ATCC #VR-1367) is used to infect human foreskin fibroblast (HFF) cells at low multiplicity (less than 0.1) and incubated overnight at 37°C in 5% CO2. After the overnight incubation, the mixture of uninfected and VZV-infected HFF infected cells are then harvested and added to each well of 96-well plates (3.5x10^4 cells in 100 µl DMEM supplemented with 2% FBS) which contain test compound or the reference standard drug control (in 100µl DMEM supplemented with 2% FBS per well). These cells are incubated for three days at 37°C in 5% CO2, then fixed for ELISA assay. The primary antibody is murine anti-VZV glycoprotein II monoclonal antibody (Applied Biosystems, Inc. #13-145-100) and the secondary antibody is goat anti-mouse IgG linked to β-galactosidase. Thus the extent of viral replication is determined by assessing β-galactosidase activity by quantifying the generation of the 4-methyl umbelliferone fluorescent cleavage product after addition of the methyl umbelliferyl-β-D-galactoside (Sigma #M1633) substrate on a microfluorimeter (365nm for excitation and 450nm for emission). Antiviral activity (IC50) of the test compound is determined by comparing the flourescence obtained in absence of compound to that obtained in the presence of compound.

[1] = tested on: HCMV recombinant mutant virus; experiment: microbe, parasite or virus in culture; type: cell-based, human cytomegalovirus; conditions: Human betaherpesvirus 5, read-out: IC50 (ug/ml) HCMV
From the text: Microtiter plate assay. Ninety-six well plate cultures of human foreskin fibroblasts are infected in the presence of inhibitor compound with a HCMV recombinant mutant virus whose genome contains the prokaryotic beta-glucuronidase gene (Jefferson, R. A., S. M. Burgess, and D. Hirsh. 1986. Beta-glucuronidase from Escherichia coli as a gene fusion marker. Proc. Natl. Acad. Sci. USA 83:8447-8451) whose expression is controlled by a viral promoter. An example of such a virus is RV145 (Jones, T. R., V. P. Muzithras, and Y. Gluzman. 1991. Replacement mutagenesis of the human cytomegalovirus genome: US10 and US11 gene products are nonessential. J. Virol. 65:5860-5872). Since it is under the control of a viral promoter, beta-glucuronidase expression is an indirect indicator of growth and replication of HCMV in this assay. At 96 hours post-infection, the infected cell lysates are prepared (using 50mM sodium phosphate [pH7.0] containing 0.1 % Triton X-100 and 0.1% sarkosyl) and assayed for beta-glucuronidase activity using a substrate for the enzyme which when cleaved yields either a product which can be measured colorimetrically in a spectrophotometer or fluorescently in a microfluorimeter. Examples of such substrates are p-nitrophenyl-beta-D-glucuronide and methylumbelliferylglucuronide, respectively. The presence of an antiviral compound is indicated by the reduced expression of the HCMV genome resident beta-glucuronidase gene, compared to the absence of inhibitor. […] Data from this assay generated using varying amounts of inhibitor compound is also used to estimate the IC50 of an inhibitor compound.

| SMILES | IC50 (HSV-1) [µg/mL] | inhibition at 10 µg/mL (VZV strain Ellen) [%] | IC50 (VZV strain Ellen) [µg/mL] | IC50 [1] [µg/mL] |
| --- | --- | --- | --- | --- |
| COc1cc(OC)c(NC(=S)Nc2ccc(NC(=O)c3ccccc3F)cc2C#N)cc1Cl [Example 381, N-{4-[3-(5-Chloro-2,4-dimethoxy-phenyl)-thioureido]-3-cyano-phenyl}-2-fluoro-benzamide] | > 10 | 13 | > 10 | > 10 |
| CC(NC(=S)Nc1ccc(NC(=O)c2ccccc2F)c(C(F)(F)F)c1)c1ccc(C#N)cc1 (stereo not drawn) [Example 1036, N-(4-{3-[1-(4-Cyano-phenyl)-ethyl]-thioureido}-2-trifluoromethyl-phenyl)-2-fluoro-benzamide] | 4 (≈ 8.22 µM) | – | 0.31 (≈ 0.637 µM) | 2.1 (≈ 4.32 µM) |
| CC(NC(=S)Nc1ccc(NC(=O)c2ccccc2F)c(C#N)c1)c1ccc(Br)cc1 (stereo not drawn) [Example 1041, N-(4-{3-[1-(4-Bromo-phenyl)-ethyl]-thioureido}-2-cyano-phenyl)-2-fluoro-benzamide] | > 10 | – | 0.096 (≈ 0.193 µM) | 10.4 (≈ 20.9 µM) |
| COc1cc(OC)c(NC(=S)Nc2ccc(NC(=O)c3c(F)cccc3F)cc2C)cc1Cl [Example 347, N-{4-[3-(5-Chloro-2,4-dimethoxy-phenyl)-thioureido]-3-methyl-phenyl}-2,6-difluoro-benzamide] | 0.06 (≈ 0.122 µM) | 34 | > 10 | 10 (≈ 20.3 µM) |
| CCCCOc1cc(NC(=S)NC(C)c2ccc(F)cc2)ccc1NC(=O)c1ccccc1F (stereo not drawn) [Example 1055, N-(2-Butoxy-4-{3-[1-(4-fluoro-phenyl)-ethyl]-thioureido}-phenyl)-2-fluoro-benzamide] | > 10 | – | 0.32 (≈ 0.662 µM) | > 10 |
| COc1cc(NC(=S)NC(C)c2ccc(F)cc2)c(OC)cc1NC(=O)c1ccccc1F (stereo not drawn) [Example 1025, 2-Fluoro-N-(4-{3-[1-(4-fluoro-phenyl)-ethyl]-thioureido}-2,5-dimethoxy-phenyl)-benzamide] | > 10 | – | > 10 | > 10 |
| CC(NC(=S)Nc1ccc(NC(=O)c2nccc3ccccc23)c(C#N)c1)c1ccc(F)cc1 (stereo not drawn) [Example 1069, Isoquinoline-1-carboxylic acid (2-cyano-4-{3-[1-(4-fluoro-phenyl)-ethyl]-thioureido}-phenyl)-amide] | > 10 | – | 0.019 (≈ 0.0405 µM) | 4 (≈ 8.52 µM) |
| CC(NC(=S)Nc1ccc(NC(=O)c2cc3ccccc3o2)c(C(F)(F)F)c1)c1ccc(F)cc1 (stereo not drawn) [Example 1067, Benzofuran-2-carboxylic acid (4-{3-[1-(4-fluoro-phenyl)-ethyl]-thioureido}-2-trifluoromethyl-phenyl)-amide] | 3.8 (≈ 7.58 µM) | – | 0.26 (≈ 0.518 µM) | 3.3 (≈ 6.58 µM) |
| CC(NC(=S)Nc1ccc(NC(=O)c2cc3ccccc3cn2)c(C(F)(F)F)c1)c1ccc(F)cc1 (stereo not drawn) [Example 1068, Isoquinoline-3-carboxylic acid (4-{3-[1-(4-fluoro-phenyl)-ethyl]-thioureido}-2-trifluoromethyl-phenyl)-amide] | > 10 | – | 0.04 (≈ 0.078 µM) | > 10 |
| CC(NC(=S)Nc1ccc(NC(=O)c2ccccc2F)c(Cl)c1)c1ccc(F)cc1 (stereo not drawn) [Example 1038, N-(2-Chloro-4-{3-[1-(4-fluoro-phenyl)-ethyl]-thioureido}-phenyl)-2-fluoro-benzamide] | 3 (≈ 6.73 µM) | – | 0.04 (≈ 0.0897 µM) | 3.5 (≈ 7.85 µM) |
| CC(NC(=S)Nc1ccc(NC(=O)c2ccccc2F)c(C(=O)c2ccccc2)c1)c1ccc(F)cc1 (stereo not drawn) [Example 1044, N-(2-Benzoyl-4-{3-[1-(4-fluoro-phenyl)-ethyl]-thioureido}-phenyl)-2-fluoro-benzamide] | > 10 | – | 3.3 (≈ 6.4 µM) | 1.8 (≈ 3.49 µM) |
| COc1cc(NC(=O)c2ccccc2F)ccc1NC(=S)Nc1ccc(SC)c(Cl)c1 [Example 420, N-{4-[3-(3-Chloro-4-methylsulfanyl-phenyl)-thioureido]-3-methoxy-phenyl}-2-fluoro-benzamide] | 0.2 (≈ 0.42 µM) | 34 | > 10 | 7 (≈ 14.7 µM) |
| COc1cc(OC)c(NC(=S)Nc2ccc(NC(=O)c3ccccc3F)c3ccccc23)cc1Cl [Example 325, N-{4-[3-(5-Chloro-2,4-dimethoxy-phenyl)-thioureido]-naphthalen-1-yl}-2-fluoro-benzamide] | 1 (≈ 1.96 µM) | 33 | > 10 | > 10 |
| CC(NC(=S)Nc1ccc(NC(=O)c2ccccc2F)c(OCc2ccccc2)c1)c1ccc(F)cc1 (stereo not drawn) [Example 1051, N-(2-Benzyloxy-4-{3-[1-(4-fluoro-phenyl)-ethyl]-thioureido}-phenyl)-2-fluoro-benzamide] | > 10 | – | 0.7 (≈ 1.35 µM) | > 10 |
| CC(NC(=S)Nc1ccc(NC(=O)c2ccccc2F)c(C(F)(F)F)c1)c1ccc(Br)cc1 (stereo not drawn) [Example 1035, N-(4-{3-[1-(4-Bromo-phenyl)-ethyl)-thioureido}-2-trifluoromethyl-phenyl)-2-fluoro-benzamide] | 3.1 (≈ 5.74 µM) | – | 0.032 (≈ 0.0592 µM) | 2.3 (≈ 4.26 µM) |
| CC(NC(=S)Nc1ccc(NC(=O)c2cc3ccccc3o2)c(C#N)c1)c1ccc(F)cc1 (stereo not drawn) [Example 1070, Benzofuran-2-carboxylic acid (2-cyano-4-{3-[1-(4-fluoro-phenyl)-ethyl]-thioureido}-phenyl)-amide] | 4.1 (≈ 8.94 µM) | – | 0.2 (≈ 0.436 µM) | 2 (≈ 4.36 µM) |
| COc1cc(NC(=O)c2ccccc2F)ccc1NC(=S)Nc1ccc(C)c(Cl)c1 [Example 419, N-{4-[3-(3-Chloro-4-methyl-phenyl)-thioureido]-3-methoxy-phenyl}-2-fluoro-benzamide] | 0.2 (≈ 0.451 µM) | 3 | > 10 | > 10 |
| CC(NC(=S)Nc1cc(Br)c(NC(=O)c2ccccc2F)c(Br)c1)c1ccc(F)cc1 (stereo not drawn) [Example 1033, N-(2,6-Dibromo-4-{3-[1-(4-fluoro-phenyl)-ethyl]-thioureido}-phenyl)-2-fluoro-benzamide] | 7 (≈ 12.3 µM) | – | 0.039 (≈ 0.0685 µM) | 3.8 (≈ 6.68 µM) |
| CC(=O)Nc1ccc(NC(=S)Nc2ccc(NC(=O)c3ccc4ccccc4c3O)c(Cl)c2)cc1 [Example 204, 1-Hydroxy-naphthalene-2-carboxylic acid {4-[3-(4-acetylamino-phenyl)-thioureido]-2-chloro-phenyl}-amide] | 4 (≈ 7.92 µM) | 41 | > 10 | 8 (≈ 15.8 µM) |
| Cc1cc(NC(=S)NC(C)c2ccc(F)cc2)ccc1NC(=O)c1cc2ccccc2o1 (stereo not drawn) [Example 1073, Benzofuran-2-carboxylic acid (4-{3-[1-(4-fluoro-phenyl)-ethyl]-thioureido}-2-methyl-phenyl)-amide] | 4.6 (≈ 10.3 µM) | – | 0.47 (≈ 1.05 µM) | 6.3 (≈ 14.1 µM) |
| CCOc1cc(NC(=S)NC(C)c2ccc(C#N)cc2)ccc1NC(=O)c1ccccc1F (stereo not drawn) [Example 1061, N-(4-{3-[1-(4-Cyano-phenyl)-ethyl]-thioureido}-2-ethoxy-phenyl)-2-fluoro-benzamide] | > 10 | – | 0.64 (≈ 1.38 µM) | 7.6 (≈ 16.4 µM) |
| CC(NC(=S)Nc1ccc(NC(=O)c2ccccc2F)c(C#N)c1)c1cc2ccccc2o1 (stereo not drawn) [Example 1043, N-{4-[3-(1-Benzofuran-2-yl-ethyl)-thioureido]-2-cyano-phenyl)-2-fluoro-benzamide] | > 10 | – | 0.099 (≈ 0.216 µM) | > 10 |

— patent publication EP1137632B1, “THIOUREA INHIBITORS OF HERPES VIRUSES” (Wyeth, priority 1998, dated 2000)
